Laboratory results: patent US20240209014A1, “NOVEL SPINOSYN PRODRUGS” (Acies Bio d.o.o., priority 2021, published 2024)
≈ marks a conversion by molar mass, not a printed value. Read-outs that look alike come from different tables or passages of the source.

Tests used:
[1] = Stability of J1Aa and J7a at different pH values (LC-MS); assay type: physicochemical
Protocol: Stability of compounds J1Aa and J7a was evaluated at different pH values. Differential stability/conversion to the active ingredient is expected to result in condition-specific activation and thereby to higher specificity towards target pests.
Stock solutions of the compounds were prepared at concentration of 0.1 mol/L. 10 μL of the stock solutions were transferred to 0.75 ml of the buffer solutions with pH values of 4, 5, 9 and 11. […] After specified times samples were analyzed using LC-MS. The compounds J1Aa and J7a and the active compound spinosyn A were quantified. It is seen that the two compounds are converted to the active form preferably in alkaline conditions.

[2] = test system: honey bees (Apis melifera carnica, Pollman 1879); assay: Single dose acute oral toxicity test on adult worker honey bees; assay type: in vivo
Protocol: Toxicity of the compounds of this invention towards honey bees (Apis melifera carnica, Pollman 1879) was assessed in comparison with commercially available samples of spinosad (LGC (Dr. Ehrenstorfer); Product code: DRE-C16972830) and the naturally produced compound butenyl spinosyn alpha 1. Solutions of spinosyn compounds were prepared in 100 mM ammonium acetate, pH=5, and later diluted in 50% (500 g/L) sucrose solution in water to final concentrations. Two final concentrations were used for each compound, 7.76 μmol/L and 15.53 μmol/L.
Single dose acute oral toxicity tests were conducted on adult worker bees according to previously described standard methods (Medrzycki at el., (2013)). Each compound and condition were tested in two parallels. Briefly, each parallel experiment consisted of 5 cages with 20 honey bees per cage. […] After uptake of the solutions honey bees were supplied with standard 50% sucrose solution and observed at 24 h and 48 h and the number of dead and live bees was estimated.
Ammonium acetate solution with pH 5 was used as the negative control.

Kinetic solubility assay = assay type: physicochemical; conditions: dose conc 200 μM, 25±2° C.
Protocol: Solubility of the compounds of the invention was assessed using kinetic solubility assay and compared to solubility of butenyl spinosyn. Stock solutions of spinosyn compounds were prepared in DMSO at mM concentration). 10 uL of the stock solutions were added into 490 of in K.S. 5.4 buffer of pH 5.4 (80 mM phosphoric acid, acetic acid, boric acid buffer, adjusted the pH to pH 5.4 with 1 N HCl and 1N NaOH) or K.S. 7.4 buffer with pH of 7.4 (80 mM phosphoric acid, acetic acid, boric acid buffer, adjusted the pH to pH 7.4 with 1 N HCl and 1N NaOH). The solutions were incubated with shaking at room […] temperature (25±2° C.) for 24 hours. 200 uL of each solution were then transferred into a new MultiScreen filter plate (Membrane of polycarbonate) and filtered by millipore vacuum manifold, and the filtrate was collected. The concentrtions of tested compounds in the filtered samples were analyzed by HPLC analysis calibrated by a standard curve generated by injection of 3 standard solutions of the relevant compound with concentrations of 1, 20, 200 μM.

[3] = test system: larvae of Ostrinia nubilialis (development stage L1); assay: Insecticide efficacy, corn leaf dip, Henderson-Tilton method; assay type: in vivo
Protocol: Insecticide activities of the compounds of this invention were assessed in comparison with commercially available samples of spinosad (LGC (Dr. Ehrenstorfer); Product code: DRE-C16972830) and spinetoram (LGC (Dr. Ehrenstorfer); Product code: DRE-C16972770). Solutions of spinosyn compounds were prepared by adding 0.05% Tween 80, lowering pH to 5.95 and sonicating. Two concentrations of each compound were used, 0.1 μg/ml and 0.3 μg/mL, with each condition tested in four parallels.
Freshly collected corn leaves were dipped into the prepared solutions. After dipping leaves were left to dry at room temperature for 1 hour. Each dry leaf was then infested with 4 larvae of Ostrinia nubilialis (development stage L1), and the experimental device was incubated at 21° C.-23° C. for 24 h in order to optimize insect development. At three timings post infestation (1 day, 3 days and 6 days), the insecticide efficacy is evaluated from the number of living larvae using the Henderson-Tilton method. Untreated control was integrated for normalization and validation of larvae health.

[4] = single oral dose 0.078 nmol/bee, 24 h after application
[5] = single oral dose 0.078 nmol/bee, 48 h after application
[6] = single oral dose 0.155 nmol/bee, 24 h after application
[7] = single oral dose 0.155 nmol/bee, 48 h after application

Molecule | Compound (J1Aa/J7a) Area % remaining ([1]; buffer pH 4, 0.16 h) [%] | SPN Area % (active spinosyn A released) ([1]; buffer pH 4, 0.16 h) [%] | Compound (J1Aa/J7a) Area % remaining ([1]; buffer pH 4, 6 h) [%] | SPN Area % (active spinosyn A released) ([1]; buffer pH 4, 6 h) [%] | Compound (J1Aa/J7a) Area % remaining ([1]; buffer pH 4, 12 h) [%] | SPN Area % (active spinosyn A released) ([1]; buffer pH 4, 12 h) [%] | Compound (J1Aa/J7a) Area % remaining ([1]; buffer pH 4, 24 h) [%] | SPN Area % (active spinosyn A released) ([1]; buffer pH 4, 24 h) [%] | Compound (J1Aa/J7a) Area % remaining ([1]; buffer pH 5, 0.16 h) [%] | SPN Area % (active spinosyn A released) ([1]; buffer pH 5, 0.16 h) [%] | Compound (J1Aa/J7a) Area % remaining ([1]; buffer pH 5, 6 h) [%] | SPN Area % (active spinosyn A released) ([1]; buffer pH 5, 6 h) [%] | Compound (J1Aa/J7a) Area % remaining ([1]; buffer pH 5, 12 h) [%] | SPN Area % (active spinosyn A released) ([1]; buffer pH 5, 12 h) [%] | Compound (J1Aa/J7a) Area % remaining ([1]; buffer pH 5, 24 h) [%] | SPN Area % (active spinosyn A released) ([1]; buffer pH 5, 24 h) [%] | % of surviving honey bees [2, 4] [%] | % of surviving honey bees [2, 5] [%] | % of surviving honey bees [2, 6] [%] | % of surviving honey bees [2, 7] [%] | other results
CC[C@H]1CCC[C@H](OC2CCC([N+](C)(C)COC(=O)C(C)(C)C)C(C)O2)[C@@H](C)C(=O)C2=C[C@@H]3[C@@H](C=C[C@@H]4C[C@@H](OC5OC(C)C(OC)C(OC)C5OC)C[C@@H]34)[C@@H]2CC(=O)O1 (some centres unmarked) [Compound J1Aa] | 94.2 | 5.8 | 92.9 | 7.1 | 93.8 | 6.2 | 93.5 | 6.5 | 94.1 | 5.9 | 91.0 | 9.0 | 92.0 | 8.0 | 90.4 | 9.6 | 99 | 82 | 91 | 42 | Compound (J1Aa/J7a) Area % remaining ([1]; buffer pH 9, 0.16 h): 33.1%; SPN Area % (active spinosyn A released) ([1]; buffer pH 9, 0.16 h): 66.9%; Compound (J1Aa/J7a) Area % remaining ([1]; buffer pH 9, 6 h): 0.0%; SPN Area % (active spinosyn A released) ([1]; buffer pH 9, 6 h): 100.0%; Compound (J1Aa/J7a) Area % remaining ([1]; buffer pH 11, 0.16 h): 0.0%; SPN Area % (active spinosyn A released) ([1]; buffer pH 11, 0.16 h): 100.0%
CC[C@H]1CCC[C@H](OC2CCC([N+](C)(C)COC(=O)OC(C)C)C(C)O2)[C@@H](C)C(=O)C2=C[C@@H]3[C@@H](C=C[C@@H]4C[C@@H](OC5OC(C)C(OC)C(OC)C5OC)C[C@@H]34)[C@@H]2CC(=O)O1 (some centres unmarked) [Compound J7a] | 92.1 | 7.9 | 91.6 | 8.4 | 91.3 | 8.7 | 90.7 | 9.3 | 91.8 | 8.2 | 90.9 | 9.1 | 90.3 | 9.7 | 89.0 | 11.0 | 96 | 88 | 97 | 68 | Compound (J1Aa/J7a) Area % remaining ([1]; buffer pH 9, 0.16 h): 44.4%; SPN Area % (active spinosyn A released) ([1]; buffer pH 9, 0.16 h): 55.6%; Compound (J1Aa/J7a) Area % remaining ([1]; buffer pH 9, 6 h): 0.0%; SPN Area % (active spinosyn A released) ([1]; buffer pH 9, 6 h): 100.0%; Compound (J1Aa/J7a) Area % remaining ([1]; buffer pH 11, 0.16 h): 0.1%; SPN Area % (active spinosyn A released) ([1]; buffer pH 11, 0.16 h): 99.9%
CC/C=C/[C@H]1CCC[C@H](OC2CCC(N(C)C)C(C)O2)[C@@H](C)C(=O)C2=C[C@@H]3[C@@H](C=C[C@@H]4C[C@@H](OC5OC(C)C(OC)C(OC)C5OC)C[C@@H]34)[C@@H]2CC(=O)O1 (stereo partly drawn) [butenyl spinosyn, Butenyl spinosyn α1, reference compound] |  |  |  |  |  |  |  |  |  |  |  |  |  |  |  |  | 73 | 53 | 42 | 18 | toxicity to honey bees compared to corresponding derivatives (in words) ([2]; acute oral toxicity test): higher toxicity to honey bees; solubility kinetic at 24 h (Kinetic solubility assay; K.S. 5.4 buffer, read-out: Kinetic Solubility pH = 5.4): 183.17 µM (≈ 139 µg/mL); solubility kinetic at 24 h (Kinetic solubility assay; K.S. 7.4 buffer, read-out: Kinetic Solubility pH = 7.4): 3.52 µM (≈ 2.67 µg/mL)
spinetoram [Spinoteram, reference compound] |  |  |  |  |  |  |  |  |  |  |  |  |  |  |  |  |  |  |  |  | % Efficacy ([3]; dose 0.1 μg a.i./ml, 1 day post infestation): 27%; % Efficacy ([3]; dose 0.1 μg a.i./ml, 3 days post infestation): 60%; % Efficacy ([3]; dose 0.1 μg a.i./ml, 6 days post infestation): 85%; % Efficacy ([3]; dose 0.3 μg a.i./ml, 1 day post infestation): 31%; % Efficacy ([3]; dose 0.3 μg a.i./ml, 3 days post infestation): 86%; % Efficacy ([3]; dose 0.3 μg a.i./ml, 6 days post infestation): 97%
